Source: PubChem BioAssay (NCI)
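Assay format: 96-well plates, 48-hour exposure. Definition used: TGI = concentration required for complete inhibition of growth.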

Experiments:
Experiment in all cases: DTP human tumour cell line panel, 48 h
DLD-1 colon = test system: DLD-1 colon
UACC-257 melanoma = test system: UACC-257 melanoma
NCI-H226 lung = test system: NCI-H226 lung
OVCAR-4 ovarian = test system: OVCAR-4 ovarian
SK-MEL-28 melanoma = test system: SK-MEL-28 melanoma
SK-OV-3 ovarian = test system: SK-OV-3 ovarian
NCI-H460 lung = test system: NCI-H460 lung
HCT-116 colon = test system: HCT-116 colon
SN12C renal = test system: SN12C renal
ACHN renal = test system: ACHN renal
IGROV1 ovarian = test system: IGROV1 ovarian
HOP-92 NSCLC = test system: HOP-92 NSCLC
XF 498 CNS = test system: XF 498 CNS
A549 NSCLC = test system: A549 NSCLC
KM20L2 colon = test system: KM20L2 colon
COLO 205 colon = test system: COLO 205 colon
LXFL 529 NSCLC = test system: LXFL 529 NSCLC
OVCAR-8 ovarian = test system: OVCAR-8 ovarian
LOX IMVI melanoma = test system: LOX IMVI melanoma
KM12 colon = test system: KM12 colon
RXF-631 renal = test system: RXF-631 renal
HL-60(TB) leukemia = test system: HL-60(TB) leukemia
HOP-62 NSCLC = test system: HOP-62 NSCLC
SF-295 CNS = test system: SF-295 CNS
HCT-15 colon = test system: HCT-15 colon
DMS 273 small cell lung = test system: DMS 273 small cell lung
SNB-19 CNS = test system: SNB-19 CNS
SNB-75 CNS = test system: SNB-75 CNS
SK-MEL-2 melanoma = test system: SK-MEL-2 melanoma
SF-539 CNS = test system: SF-539 CNS
MALME-3M melanoma = test system: MALME-3M melanoma
RPMI-8226 leukemia = test system: RPMI-8226 leukemia
CAKI-1 renal = test system: CAKI-1 renal
K-562 leukemia = test system: K-562 leukemia
TK-10 renal = test system: TK-10 renal
SF-268 CNS = test system: SF-268 CNS
HT29 colon = test system: HT29 colon
SNB-78 CNS = test system: SNB-78 CNS
UO-31 renal = test system: UO-31 renal
NCI-H522 lung = test system: NCI-H522 lung
SW-620 colon = test system: SW-620 colon
OVCAR-3 ovarian = test system: OVCAR-3 ovarian
NCI-H23 lung = test system: NCI-H23 lung
UACC-62 melanoma = test system: UACC-62 melanoma
786-0 renal = test system: 786-0 renal
OVCAR-5 ovarian = test system: OVCAR-5 ovarian
U251 CNS = test system: U251 CNS
M14 melanoma = test system: M14 melanoma

## COc1ccc(Nc2nc(C#N)c(N)s2)cc1
DLD-1 colon
  TGI: > 100 µM
UACC-257 melanoma
  TGI: > 100 µM
NCI-H226 lung
  TGI: > 100 µM
OVCAR-4 ovarian
  TGI: > 100 µM
SK-MEL-28 melanoma
  TGI: > 100 µM
SK-OV-3 ovarian
  TGI: > 100 µM
NCI-H460 lung
  TGI: > 100 µM
HCT-116 colon
  TGI: > 100 µM
SN12C renal
  TGI: > 100 µM
ACHN renal
  TGI: 60.3 µM
IGROV1 ovarian
  TGI: > 100 µM
HOP-92 NSCLC
  TGI: > 100 µM
XF 498 CNS
  TGI: 64 µM
A549 NSCLC
  TGI: > 100 µM
KM20L2 colon
  TGI: > 100 µM
COLO 205 colon
  TGI: > 100 µM
LXFL 529 NSCLC
  TGI: > 100 µM
OVCAR-8 ovarian
  TGI: > 100 µM
LOX IMVI melanoma
  TGI: 56.1 µM
KM12 colon
  TGI: > 100 µM
RXF-631 renal
  TGI: > 100 µM
HL-60(TB) leukemia
  TGI: 89.2 µM
HOP-62 NSCLC
  TGI: > 100 µM
SF-295 CNS
  TGI: 91.3 µM
HCT-15 colon
  TGI: > 100 µM
DMS 273 small cell lung
  TGI: > 100 µM
SNB-19 CNS
  TGI: > 100 µM
SNB-75 CNS
  TGI: > 100 µM
SK-MEL-2 melanoma
  TGI: > 100 µM
SF-539 CNS
  TGI: > 100 µM
MALME-3M melanoma
  TGI: > 100 µM
RPMI-8226 leukemia
  TGI: 77.8 µM
CAKI-1 renal
  TGI: > 100 µM
K-562 leukemia
  TGI: > 100 µM
TK-10 renal
  TGI: 89.6 µM
SF-268 CNS
  TGI: > 100 µM
HT29 colon
  TGI: > 100 µM
SNB-78 CNS
  TGI: > 100 µM
UO-31 renal
  TGI: > 100 µM
NCI-H522 lung
  TGI: > 100 µM
SW-620 colon
  TGI: > 100 µM
OVCAR-3 ovarian
  TGI: > 100 µM
NCI-H23 lung
  TGI: 47.8 µM
UACC-62 melanoma
  TGI: > 100 µM
786-0 renal
  TGI: > 100 µM
OVCAR-5 ovarian
  TGI: > 100 µM
U251 CNS
  TGI: > 100 µM
M14 melanoma
  TGI: > 100 µM
